Laboratory results taken from US20110059015A1, “VACCINE” (priority 2002, published 2011).

Tested on: Fab S8-gp120 III-B binding
Assay: Peptide inhibition of gp120-Fab S8 binding (ELISA)
Parameters: species or system HIV-1
Procedure: Peptides from selected phage clones were synthesised by Isogen (Maarssen, The Netherlands). For binding competition experiments, purified S8 Fab (1 μg/ml) was incubated (4° C., 4 h) with several dilutions of the corresponding peptide before addition to gp120III-B (2 μg/ml)-coated microtiter wells.

[1] = peptide 50 μg/ml (124R1: a similar concentration), Fab S8 1 μg/ml

FLQPPDFSHLPP [Fab 124R1]
inhibition of Fab S8-gp120 binding [1]: 15%

GIQLANPPRLYG [Fab 124R9]
inhibition of Fab S8-gp120 binding [1]: 50%

LLADTTHHRPWT [Fab 124R4]
inhibition of Fab S8-gp120 binding [1]: 50%

QEVGKAMYAPPI [ENV-9, peptide corresponding to gp120 amino acid residues 428-439]
inhibition of Fab S8-gp120 binding (peptide concentration not given): 50%
